Data reported in ChEMBL document CHEMBL1201862, “PubChem BioAssay data set” (2004).
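Step 1: Grow cells in 96-well plates. Step 2: Expose to compound for 48 hours at 5 concentrations. Step 3: Interpolate endpoints linearly; if unreached, use highest concentration. GI50 = concentration required for 50% inhibition of growth.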 Calls of active or inactive are those of the source. No stated cut-off is given here; in the data, active = GI50 up to about 1.1 µM and inactive = higher. Non-standard residues stand in square brackets, D forms with d. Residues, ends and D or L forms follow the SMILES beside them. *: point of attachment. Phe(4-NO2) = N[CH](Cc1ccc([N+](=O)[O-])cc1)C(=O)O; Boc = CC(C)(C)OC(=O)*

Legend:
Test in all cases: NCI-60 cell line screen, 48 h
OVCAR-4 = test system: OVCAR-4
786-0 = test system: 786-0
CCRF-CEM = test system: CCRF-CEM
MOLT-4 = test system: MOLT-4
IGROV-1 = test system: IGROV-1
SNB-75 = test system: SNB-75
PC-3 = test system: PC-3
UACC-257 = test system: UACC-257
SF-539 = test system: SF-539
HCT-15 = test system: HCT-15
SN12C = test system: SN12C
U-251 = test system: U-251
HCC 2998 = test system: HCC 2998
RPMI-8226 = test system: RPMI-8226
UACC-62 = test system: UACC-62
SK-OV-3 = test system: SK-OV-3
MDA-MB-231 = test system: MDA-MB-231
T47D = test system: T47D
BT-549 = test system: BT-549
HOP-62 = test system: HOP-62

Row | SMILES | GI50 (OVCAR-4) | GI50 (786-0) | GI50 (CCRF-CEM) | GI50 (MOLT-4) | GI50 (IGROV-1) | GI50 (SNB-75) | GI50 (PC-3) | GI50 (UACC-257) | GI50 (SF-539) | GI50 (HCT-15) | GI50 (SN12C) | GI50 (U-251) | GI50 (HCC 2998) | GI50 (RPMI-8226) | GI50 (UACC-62) | GI50 (SK-OV-3) | GI50 (MDA-MB-231) | GI50 (T47D) | GI50 (BT-549) | GI50 (HOP-62)
1 | CCC(C)C1=C(O)[N+]2([O-])Oc3ccc(-c4c(O)c(O)c(-c5ccc(O)cc5)c(OC(C)=O)c4OC(C)=O)cc3OC2(C(C)CC)C(=O)N1O (stereo unspecified) | > 50 µM (inactive) | 13.7 µM (inactive) | 1.88 µM (inactive) | 43.8 µM (inactive) | > 50 µM (inactive) | > 50 µM (inactive) | > 50 µM (inactive) | > 50 µM (inactive) | > 50 µM (inactive) | > 50 µM | > 50 µM (inactive) | > 50 µM (inactive) | 0.005 µM (active) | > 50 µM (inactive) | > 50 µM (inactive) | > 50 µM (inactive) | > 50 µM (inactive) | > 50 µM (inactive) | – | –
2 | Nc1n2nc(-c3ccccc3)sc2n[n+]1CC(=O)c1ccccc1 | 47.2 µM (inactive) | 19.9 µM (inactive) | 3.07 µM (inactive) | 3.66 µM (inactive) | 12.6 µM (inactive) | 26.3 µM (inactive) | 11 µM (inactive) | 26.1 µM (inactive) | 6.78 µM (inactive) | 12.9 µM | 27.6 µM (inactive) | 12.6 µM (inactive) | 12.5 µM (inactive) | 12.5 µM (inactive) | 7.06 µM (inactive) | 16.7 µM (inactive) | – | 30.4 µM (inactive) | 25.9 µM (inactive) | 14 µM (inactive)
3 | C=C(C)C[C@H](Sc1nc2ccccc2s1)[C@H](C)O | 70.1 µM (inactive) | 40.8 µM (inactive) | – | 16.4 µM (inactive) | > 100 µM (inactive) | – | 22.6 µM (inactive) | 32.4 µM (inactive) | 41.8 µM (inactive) | 35.8 µM | 45.4 µM (inactive) | 37.5 µM (inactive) | 59.2 µM (inactive) | 28.9 µM (inactive) | 52.7 µM (inactive) | – | 73.6 µM (inactive) | – | 40.2 µM (inactive) | > 100 µM (inactive)
4 | O=C1/C(=C\c2ccc(Cl)cc2Cl)Sc2scc(-c3ccc(O)c(O)c3)[n+]21 | 13.4 µM (inactive) | 15.7 µM (inactive) | 17.7 µM (inactive) | 9.64 µM (inactive) | 21.2 µM (inactive) | 21.8 µM (inactive) | 13.7 µM (inactive) | 18.8 µM (inactive) | 17.1 µM (inactive) | 14.8 µM | 15.9 µM (inactive) | 11.9 µM (inactive) | 17 µM (inactive) | – | 7.36 µM (inactive) | 15.8 µM (inactive) | 16.5 µM (inactive) | – | 17.9 µM (inactive) | 15.6 µM (inactive)
5 | N#Cc1nc(Cc2cccs2)oc1N | – | > 100 µM (inactive) | 47.5 µM (inactive) | > 100 µM (inactive) | > 100 µM (inactive) | > 100 µM (inactive) | > 100 µM (inactive) | > 100 µM (inactive) | – | > 100 µM | > 100 µM (inactive) | > 100 µM (inactive) | – | > 100 µM (inactive) | > 100 µM (inactive) | > 100 µM (inactive) | > 100 µM (inactive) | – | – | > 100 µM (inactive)
6 | C/C(=N\Nc1nc2ccccc2n1C)c1ccncn1 | 0.17 µM (active) | 0.08 µM (active) | 0.0618 µM (active) | < 0.01 µM (active) | 0.0233 µM (active) | 1.87 µM (inactive) | – | 0.0382 µM (active) | 0.313 µM (active) | < 0.0186 µM | 0.0243 µM (active) | 0.0904 µM (active) | 3.39 µM (inactive) | 0.0202 µM (active) | 0.125 µM (active) | 0.182 µM (active) | 0.0389 µM (active) | < 0.0501 µM (active) | 5.6 µM (inactive) | 5.38 µM (inactive)
7 | CC(C)(C)c1c(C(C)(C)C)c(=O)c1=O | > 100 µM (inactive) | > 100 µM (inactive) | > 100 µM (inactive) | > 100 µM (inactive) | – | > 100 µM (inactive) | > 100 µM (inactive) | > 100 µM (inactive) | > 100 µM (inactive) | > 100 µM | > 100 µM (inactive) | > 100 µM (inactive) | > 100 µM (inactive) | > 100 µM (inactive) | > 100 µM (inactive) | > 100 µM (inactive) | > 100 µM (inactive) | – | > 100 µM (inactive) | > 100 µM (inactive)
8 | COC(=O)CCC(NC(=O)OC(C)(C)C)C(=O)NC(Cc1ccc([N+](=O)[O-])cc1)C(=O)NC(CCC(=O)OC)C(=O)OC (stereo unspecified) (Boc-Glu(OMe)-[Phe(4-NO2)]-Glu(OMe)-OMe; configuration not given here) | > 100 µM (inactive) | > 100 µM (inactive) | 12.3 µM (inactive) | 24.9 µM (inactive) | > 100 µM (inactive) | 33.1 µM (inactive) | > 100 µM (inactive) | 11.3 µM (inactive) | 43.5 µM (inactive) | > 100 µM | 51.9 µM (inactive) | – | > 100 µM (inactive) | 27 µM (inactive) | > 100 µM (inactive) | > 100 µM (inactive) | > 100 µM (inactive) | > 100 µM (inactive) | – | > 100 µM (inactive)
